Measured values: patent US9957295B2, “Peptides inhibiting cold-inducible RNA binding protein activity” (The Feinstein Institute for Medical Research, priority 2013, dated 2018)
Entries after “also recorded” stand apart in the source; their conditions may differ.

Tests used:
[1] = system: LPS-induced TNF-α production in differentiated THP-1 cells; assay: Peptide inhibition of LPS-induced TNF-α production in differentiated THP-1 cells (ELISA); format: cell-based, human
Protocol: Human monocytic THP-1 cells (American Type Culture Collection, Manassas, Va.), were seeded in suspension into T75 tissue culture flask at a density of 1.5×10^6 cells and cultured with RPMI-1640 medium supplemented with 10% heat-inactivated fetal bovine serum, 1% penicillin/streptomycin, 2 mM glutamine and additional 0.05 mM β-mercaptoethanol at 37° C. in a humidified incubator with 5% CO2.
Cells were plated at a density of 5×10^4 per well in 96-well tissue culture plate and incubated with phorbol 12-myristate 13-acetate (20 ng/ml) for 48 h to become differentiated macrophages-like cells before experiment. Cells were used between passages 5 and 12. Cells were pretreated with indicated concentrations of CIRP-derived peptides C22 (SEQ ID NO: 13) or C23 (SEQ ID NO: 12) for 1 h, and then incubated in the absence or presence rmCIRP or LPS (from E. coli O111:B4, Sigma St. Louis, Mo.) with Opti-MEM-medium for 6 h. The cell-free supernatants were assayed for TNF-α by ELISA.
Supernatants were measured for TNF-α levels using a commercially available enzyme-linked immunosorbent assay (ELISA) kits-human TNF-α set (BioSource International, Camarillo, Calif.) according to the manufacturer's instruction.
The CIRP-derived peptides were also found to modulate LPS-induced TNF-α release in differentiated THP-1 cells. […] The doses of C22 or C23 at 2 ng/ml, equivalent to 1.3 pmol/ml and LPS at 10 ng/ml, equivalent to 0.67 pmol/ml, peptides and LPS molar ratios at 2:1 were used to treat cells.

[2] = target: T1, rhMD2 (Homo sapiens, UniProt Q9Y6Y9); assay: SPR binding to immobilized rhMD2; conditions: oligopeptides passed over immobilized rhMD2
T1 construct: Glu17-Asn160); 10-His (C); purchased R&D Systems; host or cells: E. coli
T1 sequence (Q9Y6Y9 17-160): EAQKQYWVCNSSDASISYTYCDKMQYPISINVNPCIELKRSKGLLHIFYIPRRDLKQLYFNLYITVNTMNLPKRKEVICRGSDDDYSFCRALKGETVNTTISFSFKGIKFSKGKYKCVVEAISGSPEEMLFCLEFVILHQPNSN
Protocol: Analysis of protein-protein and peptide-protein interactions were conducted using the BIAcore T200 instrument (GE Healthcare). Binding reactions were performed in 1×PBS buffer containing 0.01% Tween-20 (pH 7.4). The CM5 dextran chip (flow cell-2) was first activated by injection with 89 μl of 0.1 M […] and 0.1 M N-hydroxysuccinimide. An aliquot of 200 μl of 5 μg/ml of the ligand diluted in 10 mM sodium acetate (pH 4.5) was injected into flow cell-2 of the CM5 chip for immobilization. Next, 135 μl of 1 M ethanolamine (pH 8.2) was then injected to block the remaining active sites. The flow cell-1 without coating with the ligand was used as a control to evaluate nonspecific binding. The binding analyses were performed at flow rate of 30 μl/min at 25° C. To evaluate the binding, the analyte (ranging from 62.5 nM to 1.0 μM for kinetics analysis or 0.5 μM for yes/no binding analysis) was injected into flow cell-1 and -2 and the association of analyte and ligand was recorded respectively by surface plasmon resonance. The signal from the blank channel (flow cell-1) was subtracted from the channel (flow-cell 2) coated with the ligand. Data were analyzed by the BIAcore T200 Evaluation Software. For all samples, a blank injection with buffer alone was subtracted from the resulting reaction surface data. Data were globally fitted to the Lagmuir model for a 1:1 binding.
Surface plasmon resonance (SPR) analysis was utilized to determine the physical interaction and binding affinity between rhCIRP and pattern-recognition receptors and MD2. […] The sensorgrams show association and dissociation of analyte at the indicated concentration passed over to the immobilized ligand on the sensor chip, indicated as analyte/ligand on top of each diagram. […] The region of CIRP that binds to MD2 was determined via the synthesis of 32 oligopeptides (15-mer) covering the entire human CIRP sequence. The oligopeptides were passed over immobilized rhMD2 on the BIAcore instrument, followed by subsequent performance of a series of SPR analyses. Three oligopeptides with high binding affinity were indicated. […] Three oligopeptides, aa 101-115, 106-120 (C22), and 111-125 (C23) bound to rhMD2 with high affinity (FIG. 14 and FIG. 19).

[3] = system: MLVEC stimulated with rmCIRP; assay: rmCIRP-stimulated mouse lung vascular endothelial cells (MLVEC); format: cell-based; conditions: C23 200 ng/ml
Protocol: MLVEC were treated with rmCIRP in the presence of C23 or non-specific oligopeptide P5 (negative control) for 4 hours. Cells were harvested, lysed and the cell lysate analyzed by SDS-PAGE and Western blotting (immunodetection). Referring to FIG. 23A, ICAM-1 expression is abrogated in the presence of 200 ng/ml of the oligopeptide C23.
Similarly, the release of IL-1beta by MLVEC stimulated by rmCIRP was blocked (as determined by ELISA) when 200 ng/ml of the oligopeptide C23 was added to the media, as shown in FIG. 23B. (For FIGS. 23A and 23B: Mean+/−SD, n=3, *P<0.05 vs. groups without C23.)

[4] = system: septic mice (CLP); assay: Mouse CLP severe sepsis survival study; format: in vivo
Protocol: Mice were subjected to CLP and treated immediately after operation with the antibiotic imipenem ([…] BW) and resuscitative fluid. At 2 hours after CLP, mice were administered C23 (8 mg/kg BW) or an equivalent volume of normal saline (vehicle) via the internal jugular vein. Survival was then assessed every 12 hours.

[5] = system: mice subjected to CLP; assay: Mouse CLP sepsis, markers 24 hours post-CLP; format: in vivo; conditions: 8 mg/kg 2 hours after CLP
Protocol: Mice subjected to CLP were treated 2 hours later with the oligopeptide C23 (8 mg/kg) or saline.
In FIGS. 23A through 23C: Mean+/−SD; n=4-8/group; *P<0.05 vs. sham, #P<0.05 vs. vehicle, one-way ANOVA. mRNA amounts are measured by qPCR; protein levels are measured by ELISA.

[6] = system: rmCIRP-induced TNF-α production, RAW 264.7 cells; assay: Polymyxin B on rmCIRP-induced TNF-α production in RAW 264.7 cells; format: cell-based, murine; conditions: PMB 120 U/ml, rmCIRP 1.5 μg/ml, 8 hours
Protocol: (§1) Murine macrophage-like RAW 264.7 cells were obtained from ATCC (American Type Culture Collection, Manassas, Va.), and were grown in Dulbecco's Modified Eagle's Medium (DMEM, Life Technologies, Grand Island, N.Y.) containing 10% (vol/vol) FBS (heat-inactivated at 56° C. for 30 min), 100 U/ml penicillin, 100 μg/ml streptomycin and 2 mM glutamine. Cells were re-suspended in medium and incubated in 6 or 48-well tissue-culture plates overnight in a humidified incubator (37° C., 5% CO2). In the experiments, cell monolayers were stimulated with or without recombinant CIRP at various indicated concentrations and for various indicated times. The cell-free supernatants were assayed for TNF-α by ELISA or for HMGB1 by western blot analysis.
(§2) To conduct this experiment, rmCIRP (1.5 μg/ml or LPS (10 ng/ml) was treated with polymyxin B (PMB, 120 U/ml) or heated at 80° C. for 30 min before being added to RAW 264.7 cells for 8 hours. *P<0.05 vs. rmCIRP; #P<0.05 vs. LPS.

[7] = system: LPS-induced TNF-α release, RAW 264.7 cells; assay: Polymyxin B on LPS-induced TNF-α release from RAW 264.7 cells; format: cell-based, murine; conditions: PMB 120 U/ml, LPS 10 ng/ml, 8 hours
Protocol: as §1, §2

[8] = system: THP-1 cells; assay: TNF-α release from differentiated THP-1 cells stimulated with recombinant proteins; format: cell-based, human; conditions: 0.3 μg/ml each protein, 8 h, ELISA
Protocol: As with the murine model, the stimulation of TNF-α, release by rCIRP in a human model was studied. […] These experiments were conducted by incubating differentiated human THP-1 cells with rhCIRP or rmCIRP at the indicated concentrations for 4 h. *P<0.05 vs. no CIRP. Similarly, human PBMC were incubated with the indicated concentrations of rhCIRP for 8 h. *P<0.05 vs. no rhCIRP. Thus, stimulation of cytokine release by CIRP was not attributable to LPS contamination. Furthermore, CIRP-induced cytokine activation was conserved between rodents and humans.
rmCIRP induced TNF-α and HMGB1 release in macrophages (FIGS. 10a, b and c). It was reported that HMGB1 can also stimulate TNF-α release (Andersson, U., et al. High mobility group 1 protein (HMG-1) stimulates proinflammatory cytokine synthesis in human monocytes. J. Exp. Med. 192, 565-570 (2000)). The relationship between CIRP and HMGB1 on stimulating TNF-α release was analyzed by applying respective neutralizing antibodies. […] After 4 h, TNF-α levels in conditioned medium (CM) were assayed by ELISA. Data are mean±s.e.m. from three independent experiments. *P<0.05 vs. rmCIRP+ control IgG. In FIG. 16D, RAW 264.7 cells were pre-incubated with rabbit control IgG or anti-CIRP antibodies at indicated dilutions of 1 mg/ml for 20 min before adding 1.0 μg/ml rmCIRP. After 4 h, TNF-α levels in CM were assayed by ELISA. Data are mean±s.e.m. from three independent experiments. *P<0.05 vs. rmCIRP+ control IgG. THP-1 cells were incubated with 4 μg/ml of anti-CIRP antibodies, anti-HMGB1 antibodies, or non-immunized control IgG for 1 h prior to adding rmCIRP (0.3 μg/ml), rmHMGB1 (0.3 μg/ml), or rmCIRP/rmHMGB1 (0.3 μg/ml, 0.3 μg/ml) for 8 h. *P<0.05 vs. rmCIRP; #P<0.05 vs. rmHMGB1. […] Furthermore, rmCIRP, rmHMGB1, and rmCIRP plus rmHMGB1 induced TNF-α levels of 0.8, 0.6, and 1.6 ng/ml, respectively. […] TNF-α levels in all collected CM were assayed by ELISA. Data are mean±s.e.m. from three or four independent experiments.
Murine macrophage-like RAW 264.7 cells and human monocyte THP-1 cells were obtained from ATCC (Manassas, Va.). […]

[9] = target: TLR4 (Homo sapiens, UniProt O00206); conditions: literature; read-out: KD, binding to TLR4; cited from earlier work
Sequence of TLR4 (O00206 24-631 limits assumed, species assumed): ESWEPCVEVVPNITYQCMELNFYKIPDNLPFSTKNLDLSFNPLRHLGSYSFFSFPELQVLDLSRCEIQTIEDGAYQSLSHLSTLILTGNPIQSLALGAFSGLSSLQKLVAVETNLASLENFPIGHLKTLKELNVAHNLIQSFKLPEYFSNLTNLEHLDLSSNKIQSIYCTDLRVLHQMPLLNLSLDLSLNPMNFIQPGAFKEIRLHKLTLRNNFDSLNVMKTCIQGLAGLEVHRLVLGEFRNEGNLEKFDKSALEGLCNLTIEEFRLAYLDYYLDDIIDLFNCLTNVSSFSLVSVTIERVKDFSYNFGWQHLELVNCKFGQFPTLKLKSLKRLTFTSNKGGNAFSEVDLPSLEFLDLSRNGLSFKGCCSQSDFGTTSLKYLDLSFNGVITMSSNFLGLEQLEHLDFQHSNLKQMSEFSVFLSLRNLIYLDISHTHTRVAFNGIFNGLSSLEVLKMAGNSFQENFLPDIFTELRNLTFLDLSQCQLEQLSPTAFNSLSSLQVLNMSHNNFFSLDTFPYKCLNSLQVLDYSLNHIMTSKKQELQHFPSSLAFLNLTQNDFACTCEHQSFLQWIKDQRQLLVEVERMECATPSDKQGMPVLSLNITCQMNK

GGRGRGRGFSRGGGD (fragment of CIRP) [C22, 15-mer oligopeptide derived from human CIRP]
effect on LPS-induced TNF-α release in THP-1 cells (in words) [1]: inhibit | binding affinity of 15-mer oligopeptides to rhMD2 (in words) [2]: high affinity

GRGFSRGGGDRGYGG (fragment of CIRP) [C23, 15-mer oligopeptide derived from human CIRP]
effect on LPS-induced TNF-α release in THP-1 cells (in words) [1]: inhibit | binding affinity of 15-mer oligopeptides to rhMD2 (in words) [2]: high affinity; also recorded: highest affinity | ICAM-1 expression in MLVEC ([3]; 4 hours, Western blot): abrogated | release of IL-1beta by MLVEC ([3]; ELISA): blocked | survival (Kaplan-Meier, in words) ([4]; 8 mg/kg BW 2 hours after CLP, all vehicle mice died within 48 hours): some of C23-treated mice lived longer | average survival time ([4]; 8 mg/kg BW via internal jugular vein 2 hours after CLP, with imipenem): 44.2 h | serum levels of TNF-α and IL-6 [5]: lower | expression of E-selectin, ICAM-1, TNF-α and IL-1β in the lungs ([5]; 24 hours post-CLP): significant decrease

Polymyxin B
effect on rmCIRP-induced TNF-α production [6]: did not interfere | inhibition of LPS-induced TNF-α release [7]: 84%

RGFFRGGRGRGRGFS (fragment of CIRP) [C21, 15-mer oligopeptide derived from human CIRP]
effect on LPS-induced TNF-α release in THP-1 cells (in words) [1]: does not suppress | binding affinity of 15-mer oligopeptides to rhMD2 (in words) [2]: high affinity

B1: rmHMGB1: recombinant HMGB1 produced as in Yang et al. 2004 (protein, UniProt P63158 1-215, looked up)
High mobility group protein B1: MGKGDPKKPRGKMSSYAFFVQTCREEHKKKHPDASVNFSEFSKKCSERWKTMSAKEKGKFEDMAKADKARYEREMKTYIPPKGETKKKFKDPNAPKRPPSAFFLFCSEYRPKIKGEHPGLSIGDVAKKLGEMWNNTAADDKQPYEKKAAKLKEKYEKDIAAYRAKGKPDAAKKGVVKAEKSKKKKEEEDDEEDEEDEEEEEEEEDEDEEEDDDDE
induced TNF-α levels [8]: 0.6 ng/mL

B2: rhMD2: recombinant human MD2 (Glu17-Asn160) with 10-His tag, expressed from E. coli, R&D Systems (protein)
chain: EAQKQYWVCNSSDASISYTYCDKMQYPISINVNPCIELKRSKGLLHIFYIPRRDLKQLYFNLYITVNTMNLPKRKEVICRGSDDDYSFCRALKGETVNTTISFSFKGIKFSKGKYKCVVEAISGSPEEMLFCLEFVILHQPNSNHHHHHHHHHH
Kd [9]: 62.9 nM
